The nature of data set [1]: Electron mobility of TC-PDA-F in an OTFT versus time of exposure to air (air-stability, FIG. 3). It is filed as physicochemical. Conditions: OTFT thin film. The text has this:
Refer to FIG. 1 and FIG. 2 for diagrams respectively schematically showing a BG-TC (Bottom Gate-Top Contact) OTFT and a BG-BC (Bottom Gate-Bottom Contact) OTFT. The BG-TC OTFT 10 has a substrate 11, a gate 12 formed on the substrate 11, a dielectric layer 13 formed on the gate 12, a source 14 and a drain 15 formed over the dielectric layer 13, and an organic semiconductor layer 16 for conducting the source 14 and the drain 15. The BG-BC OTFT 20 has a substrate 21, a gate 22 formed on the substrate 21, a dielectric layer 23 formed on the gate 22, a source 24 and a drain 25 formed on the dielectric layer 23, and an organic semiconductor layer 26 for conducting the source 24 and the drain 25. In one embodiment, the organic semiconductor layers 16 and 26 are fabricated with a soluble process in the atmospheric environment. In one embodiment, the dielectric layers 13 and 23 respectively formed on the substrates 11 and 21 also are fabricated with a soluble process. For example, a liquid-phase deposited silicon dioxide (LPD-SiO2) is formed on a silicon substrate 11 or 21 to function as the dielectric layer 13 or 23, whereby the electron mobility thereof can reach 0.26 cm^2V^−1s^−1. Refer to FIG. 3 for a diagram showing the relationship of the electron mobility of TC-PDA-F and the time of exposure to air.

The nature of data set [2]: Solubility in organic solution. Conditions: organic solution (such as toluene). It is filed as physicochemical.

Results on 1 molecule are retold here after US20110233526A1, “PERYLENE DIIMIDE DERIVATIVE AND ORGANIC SEMICONDUCTOR ELEMENT USING THE SAME MATERIAL” (priority 2010, published 2011).

SMILES strings stand for the structures.

For `O=C1c2cc(Cl)c3c4c(Cl)cc5c6c(cc(Cl)c(c7c(Cl)cc(c2c37)C(=O)N1Cc1cc(F)cc(C(F)(F)F)c1)c64)C(=O)N(Cc1cc(F)cc(C(F)(F)F)c1)C5=O` [TC-PDA-F], the electron mobility is given as 1.6×10^−5 cm^2V^−1s^−1 in data set [1] (after exposure to air for two months (FIG. 3)) and 5.34×10^−5 cm^2V^−1s^−1 in data set [1] (before exposure to air (FIG. 3)). In addition, the “solubility in organic solution” value in data set [2] is on record as “can be dissolved”.
